Assay results reported in patent US3931197A, “Substituted piperidine derivatives” (Richardson-Merrell Inc., priority 1974, dated 1976).

Test system: wheals induced by intradermal injections of 1γ of histamine
Test: reduction by 50% of wheals induced by intradermal injections of histamine in guinea pigs
Format: in vivo
Conditions: Cavia porcellus, po, 1 h, orally administered one hour prior to intradermal injection of 1γ histamine, read-out: ED50 (amount of compound required to reduce by 50% wheals induced by intradermal injections of histamine)
Excerpt: To illustrate the utility of the compounds of this invention the following tabulation indicates the amount of certain representative compounds of this invention required to reduce by 50% wheals induced by intradermal injections of 1γ of histamine into guinea pigs. Each compound was orally administered one hour prior to the histamine injection.

SMILES | ED50
CC(C)(C)Cc1ccc(C(=O)CCCN2CCC(C(O)(c3ccccc3)c3ccccc3)CC2)cc1.Cl [4-[4-(α-Hydroxy-α-phenylbenzyl)piperidino]-4'-neopentyl-butyrophenone hydrochloride] | 0.5 mg/kg
Cc1ccc(C(=C2CCN(CCCC(=O)c3ccc(C(C)(C)C)cc3)CC2)c2ccccc2)cc1.Cl [4'-tert-Butyl-4-[4-[α-(p-tolyl)benzylidene]piperidino]-butyrophenone hydrochloride] | ~10 mg/kg
Cc1ccc(C(O)(c2ccccc2)C2CCN(CCCC(=O)c3ccc(C(C)(C)C)cc3)CC2)cc1.Cl (stereo not drawn) [4'-tert-Butyl-4-[4-[α-hydroxy-α-(p-tolyl)benzyl]piperidino]-butyrophenone hydrochloride] | 6 mg/kg
Cl.O=C(CCCN1CCC(C(O)(c2ccccc2)c2ccccc2)CC1)c1ccc2ccccc2c1 [4-[4-(α-Hydroxy-α-phenylbenzyl)piperidino]-1-(2-naphthyl)-butan-1-one hydrochloride] | 3.6 mg/kg
Cl.O=C(CCCN1CCC(C(O)(c2ccccc2)c2ccccc2)CC1)c1ccc(C2CCCC2)cc1 [4'-Cyclopentyl-4-[4-(α-hydroxy-α-phenylbenzyl)piperidino]-butyrophenone hydrochloride] | 2.5 mg/kg
CC(C)(C)c1ccc(C(=O)CCCN2CCC(C(O)(c3ccccc3)c3ccc(Cl)cc3)CC2)cc1.Cl (stereo not drawn) [4'-tert-Butyl-4-[4-[α-hydroxy-α-(p-chlorophenyl)benzyl]-piperidino]butyrophenone hydrochloride] | 27 mg/kg
